Laboratory results as given in US4931435A, “Agent with an antidepressant activity” (Boehringer Ingelheim KG, priority 1987, dated 1990).

What was measured:
isolated chicks = assay: chick call test: distress call activation in isolated one day old chicks (antidepressant activity); assay type: in vivo; settings: Placebo = 100%
Description: The call frequency of isolated one day old chicks, which decreases in the course of the test, is used as an experimental behavioral model of manifestations of resignation in depression, The method has been validated by tests on numerous neurotropically active substances; it is distinguished by its highly reproducible selectivity for antidepressants which are capable of reactivating the decreased call rate as a function of dosage. [distress call activation in isolated chicks; A new behavioral model for antidepressants, E. Lehr, Psychopharmacol. 89. […] Neurol. Psychiat.

[1] = tested on: ptosis induced by tetrabenazine; assay: Inhibition of ptosis induced by tetrabenazine in the mouse; assay type: in vivo; settings: Control without tetrabenazine = 100%
[2] = tested on: Albino mice of the Chbb: NMRI strain; settings: group 1 (m and f), i.v., mouse, dosage 100
Description: Albino mice of the Chbb: NMRI strain
A 2% solution of 1-benzyl-4-aminomethyl-pyrrolidin-2-one fumarate and a 0.25% imipramin solution (pH=6.2) were used.

mice = settings: mouse, in vivo
Procedure: The test substances were dissolved in 0.9% NaCl solution.
**The animals in Group 2 were treated first with
1benzyl-4-aminomethyl-pyrrolidin-2-one FU and immediately afterwards
(about 10 to 15 seconds later) with imipramin.

Row | Structure (SMILES) | Increase in call rate in the second hour (isolated chicks; 10 mg/kg i.p.) | Inhibition of ptosis induced by tetrabenazine ([1]; 3 mg/kg p.o.) | Increase in call rate in the second hour (isolated chicks; 5 mg/kg i.p.) | Inhibition of ptosis induced by tetrabenazine ([1]; 3.5 mg/kg p.o.) | Lethality dead/treated animals [2] | effect of pretreatment on the toxic effect of imipramin (mice)
1 | CN(C)CCCN1c2ccccc2CCc2ccccc21 [Compound A, 10,11-dihydro-N,N-dimethyl-5H-dibenz[b,f]-azepin-5-propanamine, reference compound] | 131% | 12% |  |  |  | 
2 | NCC1CC(=O)N(Cc2ccccc2)C1 (stereo not drawn) [Compound B, 1-benzyl-4-aminomethyl-pyrrolidin-2-one] |  |  | 284% | 48% | 0/10 | toxic effect of imipramin is reduced
